This note sets out measurements from patent US9586963B2 (GENFIT, priority 2011, dated 2017).

By EC50 is commonly meant the concentration that produces a half-maximal response. A low value points to higher potency in that assay.

Each structure is given as a SMILES string. Counter-ions that a name gives are not always drawn. Bounds are passed on as bounds.

For the first experiment, the target named is T1, Rev-Erb alpha (Homo sapiens, UniProt P20393).
T1 sequence (P20393 284-614 limits assumed): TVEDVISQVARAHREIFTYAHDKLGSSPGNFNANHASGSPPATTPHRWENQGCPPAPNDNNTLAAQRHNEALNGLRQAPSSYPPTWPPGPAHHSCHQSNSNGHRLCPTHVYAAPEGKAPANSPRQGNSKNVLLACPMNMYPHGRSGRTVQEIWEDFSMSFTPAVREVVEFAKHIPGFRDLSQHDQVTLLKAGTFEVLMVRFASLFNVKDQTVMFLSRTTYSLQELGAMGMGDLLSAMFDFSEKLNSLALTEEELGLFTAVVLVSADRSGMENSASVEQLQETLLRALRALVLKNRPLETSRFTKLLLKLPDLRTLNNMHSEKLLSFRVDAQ
Kind of experiment: M2H (mammalian two-hybrid) cellular activation assay of Rev-Erb alpha. Format: cell-based. Particulars: M2H assay, HEK293 cells, Gal4-Rev-Erb alpha / VP16-NCoR, luciferase reporter. The procedure:
In this system, Rev-Erb alpha or Rev-Erb beta is expressed as a fusion to the Gal4 DNA-binding domain and the cofactor NCoR is expressed as a fusion to the activation domain of the Herpes Simplex Virus tegument protein VP16. These fusion proteins were included in plasmids at a concentration of 1 μg/μL. The pBS-SK+ vector was added to the preparation to adjust the DNA quantity to a fixed value for each condition.
The transfection mix (Jet-PEI protocol, Polyplus transfection) comprised: • 3 mL of Jet PEI Mix (180 μL Jet-Pei and NaCl at 150 mM) and • 3 mL of the DNA Mix or of the DNA Mix control (wherein the Gal4-Rev-Erb alpha plasmid was replaced by a pGal4phi plasmid).
DNA Mix comprised 1.2 mL of DNA and 1.8 mL of NaCl at 150 mM with, in a T225 flask: • 90 ng of Gal4-Rev-Erb alpha, or 90 ng of Gal4-Rev-Erb beta, • 4500 ng of VP16-NCoR, • 27000 ng of Gal4-RE and • 13410 ng of pBS-SK+. Cells
HEK293 cells were cultured in DMEM (Invitrogen 41965) comprising 10% FBS, P/S, 1% glutamine, 1% pyruvate (Invitrogen 11360) and 1% amino acids (Invitrogen 11140). Cells were then batch co-transfected with plasmid vectors (described in the table above) using as Jet-PEI as reagent (Polyplus) following the protocol specified below.
The 6 mL-transfection mix was transferred in a T225 flask. HEK293 cells were then added at a concentration of 12 Millions of cells for 54 mL of medium (DMEM comprising 10% FBS and 1% P/S). Cells incubated over-night at 37° C. and under 5% CO2.
This cell-based assay is performed using 384-well Greiner white plates (Reference 781080). After the incubation, cells were rinsed with PBS, trypsinized, centrifuged and resuspended in free-serum DMEM without phenol red (Invitrogen 31053). Cells were counted and adjusted to 0.5 Million per mL and plated at a concentration of 10,000 cells in 20 μL per well. They were incubated a minimum of 4 hours at 37° C. under 5% CO2. Cells were treated with 20 μL of the compound to analyze (concentration of 2× diluted in DMEM without FBS containing a maximum of 1% DMSO) and incubated over-night (18 hours, 37° C. and 5% CO2). Each compound has been tested at 6 different concentrations to depict a dose-effect allowing the measure of biochemical parameters such as EC50 and TOP activation (%).
Cells were incubated 30 minutes with 40 μL/well of Steady Glow (Promega) and luminescence was read with TECAN Genios Pro (100 ms/w). Four experiments were carried out for each compound.
Each compound has been tested at 6 different concentrations to depict a dose-effect allowing the measure of biochemical parameters such as EC50 and TOP activation (%).
The mammalian two-hybrid system (M2H) assay consists herein in studying the ability of compounds according to the invention to activate Rev-Erbalpha in cells and thus modulate the interaction with its corepressor. The interaction of the two proteins is assessed with the help of the Luciferase reporter gene. HEK293 cells were transfected with two gene constructions: Gal4-RE VP16-NCoR and Gal4-Rev-Erbalpha or with Gal4-RE, sVP16-NCoR and Gal4-Rev-Erb beta.
The ability of compounds according to the invention of activating Rev-Erbalpha alpha or Rev-Erb beta was assessed in the described cell-based assay. EC50 and TOP activation (%) were measured.
In general terms: Reporter assays use an easily measured gene product as a stand-in for the process of interest.
`COc1cncc(-c2ccc(C(F)(F)F)cc2Oc2ccc3nnc(Cl)n3n2)c1` [Cpd.4-82, 3-chloro-6-(2-(5-methoxypyridin-3-yl)-5-(trifluoromethyl)phenoxy)-[1,2,4]triazolo[4,3-b]pyridazine] displayed a 50% effective concentration (EC50) of 1000 to 6000 nM. For `CCOc1ccc(-c2ccc(C(F)(F)F)cc2Oc2ccc3nnc(Cl)n3n2)cn1` [Cpd.4-84, 3-chloro-6-(2-(6-ethoxypyridin-3-yl)-5-(trifluoromethyl)phenoxy)-[1,2,4]triazolo[4,3-b]pyridazine], the EC50 lay within 1000 to 6000 nM. The same measure, in the same setting: then `Oc1cncc(-c2ccc(C(F)(F)F)cc2Oc2ccc3nnc(Cl)n3n2)c1` [Cpd.4-96, 5-(2-(3-chloro-[1,2,4]triazolo[4,3-b]pyridazin-6-yloxy)-4-(trifluoromethyl)phenyl)pyridin-3-ol], with over 6000 nM; and `COc1ccc(-c2ccc(C(F)(F)F)cc2Oc2ccc3nnc(Cl)n3n2)cn1` [Cpd.4-81, 3-chloro-6-(2-(6-methoxypyridin-3-yl)-5-(trifluoromethyl)phenoxy)-[1,2,4]triazolo[4,3-b]pyridazine], with 100 to 1000 nM.

Molecule `Cc1ccc(-c2cc(F)ccc2Oc2ccc3nnc(Cl)n3n2)cc1` [Cpd.4-143, 3-chloro-6-(5-fluoro-4′-methylbiphenyl-2-yloxy)-[1,2,4]triazolo[4,3-b]pyridazine] showed an EC50 of 100 to 1000 nM.

For the molecule `Cc1cc(Oc2cccc(C(F)(F)F)c2-c2cncnc2)nn2c(Cl)nnc12` [Cpd.5-42, 3-chloro-8-methyl-6-(2-(pyrimidin-5-yl)-3-(trifluoromethyl)phenoxy)-[1,2,4]triazolo[4,3-b]pyridazine], the EC50 was in the range of 1000 to 6000 nM. On the same count and under the same terms, then `FC(F)(F)c1ccc(-c2ccncc2)c(Oc2ccc3nnc(Cl)n3n2)c1` [Cpd.4-79, 3-chloro-6-(2-(pyridin-4-yl)-5-(trifluoromethyl)phenoxy)-[1,2,4]triazolo[4,3-b]pyridazine hydrochloride], with 1000 to 6000 nM; and `Clc1cccc(-c2ccccc2Oc2ccc3nnc(Cl)n3n2)c1` [Cpd.4-29, 6-(3′-chloro-biphenyl-2-yloxy)-3-chloro-[1,2,4]triazolo[4,3-b]pyridazine], with 100 to 1000 nM; and `OCc1ccc(Oc2ccc3nnc(Cl)n3n2)c(-c2ccccc2)c1` [Cpd.4-66, 3-chloro-6-(5-hydroxymethyl-biphenyl-2-yloxy)-[1,2,4]triazolo[4,3-b]pyridazine], with 1000 to 6000 nM. The same measure, in the same setting: then `FC(F)(F)c1cccc(-c2ccccc2Oc2ccc3nnc(Cl)n3n2)c1` [Cpd.4-28, 6-(3′-trifluoromethyl-biphenyl-2-yloxy)-3-chloro-[1,2,4]triazolo[4,3-b]pyridazine], with 100 to 1000 nM. The same measure, in the same setting: for `CN(Cc1ccccc1)Cc1ccc(Oc2ccc3nnc(Cl)n3n2)c(-c2ccccc2)c1` the value was 100 to 1000 nM; for `Cc1cc(Oc2cc(C(F)(F)F)ccc2-c2cncnc2C(C)C)nn2c(Cl)nnc12` [Cpd.5-38, 3-chloro-8-methyl-6-((2-(4-isopropylpyrimidin-5-yl))-5-(trifluoromethyl)phenoxy)-[1,2,4]triazolo[4,3-b]pyridazine], 1000 to 6000 nM.

For `Cc1ccc(-c2cc(F)ccc2Oc2ccc3nnc(C(F)(F)F)n3n2)cc1` [Cpd.4-142, 3-(trifluoromethyl)-6-(5-fluoro-4′-methylbiphenyl-2-yloxy)-[1,2,4]triazolo[4,3-b]pyridazine], the concentration for a half-maximal effect (EC50) fell in the range of 1000 to 6000 nM. Turning to `COC(=O)c1ccc(Oc2ccc3nnc(Cl)n3n2)c(-c2ccccc2)c1` [Cpd.4-69, 3-chloro-6-(5-methyloxycarbonyl-biphenyl-2-yloxy)-[1,2,4]triazolo[4,3-b]pyridazine], the EC50 is 100 to 1000 nM.

The molecule `CC(C)c1ncncc1-c1ccc(C(F)(F)F)cc1Oc1ccc2nnc(Cl)n2n1` [Cpd.4-128, 3-chloro-6-((2-(4-isopropylpyrimidin-5-yl))-5-(trifluoromethyl)phenoxy)-[1,2,4]triazolo[4,3-b]pyridazine] yielded a half-maximal effective concentration (EC50) of 1000 to 6000 nM. `COc1ccccc1-c1ccccc1Oc1ccc2nnc(Cl)n2n1` [Cpd.4-111, 3-chloro-6-(2′-methoxybiphenyl-2-yloxy)-[1,2,4]triazolo[4,3-b]pyridazine] came in with a concentration for a half-maximal effect (EC50) of 100 to 1000 nM. The same measure, in the same setting: for `FC(F)(F)c1cccc(Oc2ccc3nnc(Cl)n3n2)c1-c1cccnc1` [Cpd.4-129, 3-chloro-6-(2-(pyridin-3-yl)-3-(trifluoromethyl)phenoxy)-[1,2,4]triazolo[4,3-b]pyridazine] the value was 1000 to 6000 nM; for `COc1ncccc1-c1ccc(C(F)(F)F)cc1Oc1nn2c(Cl)nnc2c(C)c1C` [Cpd.5-25, 3-chloro-7,8-dimethyl-6-((2-(2-methoxypyridin-3-yl))-5-(trifluoromethyl)phenoxy)-[1,2,4]triazolo[4,3-b]pyridazine], 1000 to 6000 nM; for `Clc1nnc2ccc(Oc3cc(CNC4CC4)ccc3-c3ccccc3)nn12` [Cpd.4-178, 3-chloro-6-(4-cyclopropylaminomethylbiphenyl-2-yloxy)-[1,2,4]triazolo[4,3-b]pyridazine], 1000 to 6000 nM. The same measure, in the same setting: then `Nc1ccc(-c2ccccc2)c(Oc2ccc3nnc(Cl)n3n2)c1` [Cpd.4-48, 3-chloro-6-(4-amino-biphenyl-2-yloxy)-[1,2,4]triazolo[4,3-b]pyridazine], with 1000 to 6000 nM.

The molecule `Cc1ncccc1-c1ccc(C(F)(F)F)cc1Oc1cc(C)c2nnc(Cl)n2n1` [Cpd.5-19, 3-chloro-8-methyl-6-(2-(2-methylpyridin-3-yl)-5-(trifluoromethyl)phenoxy)-[1,2,4]triazolo[4,3-b]pyridazine] yielded a half-maximal effective concentration (EC50) of 100 to 1000 nM. Consider `Cc1ccc(-c2ccc(C(F)(F)F)cc2Oc2nn3c(Cl)nnc3cc2C)cn1` [Cpd.5-17, 3-chloro-7-methyl-6-(2-(6-methylpyridin-3-yl)-5-(trifluoromethyl)phenoxy)-[1,2,4]triazolo[4,3-b]pyridazine], for which the EC50 fell in the range of 100 to 1000 nM. Same read-out and setting: then `Fc1ccc(Oc2ccc3nnc(Cl)n3n2)c(-c2ccccc2F)c1` [Cpd.4-121, 3-chloro-6-(2′,5-difluorobiphenyl-2-yloxy)-[1,2,4]triazolo[4,3-b]pyridazine], with 100 to 1000 nM; and `Cc1noc(C)c1-c1ccccc1Oc1ccc2nnc(Cl)n2n1` [Cpd.4-109, 3-chloro-6-(2-(3,5-dimethylisoxazol-4-yl)phenoxy)-[1,2,4]triazolo[4,3-b]pyridazine], with over 6000 nM.

`FC(F)(F)c1ccc(-c2nccs2)c(Oc2ccc3nnc(Cl)n3n2)c1` [Cpd.4-105, 3-chloro-6-(2-(thiazol-2-yl)-5-(trifluoromethyl)phenoxy)-[1,2,4]triazolo[4,3-b]pyridazine]: the EC50 lay in the range of 1000 to 6000 nM. The same measure, in the same setting: for `Cc1cc2nnc(Cl)n2nc1Oc1cc(C(F)(F)F)ccc1-c1cncnc1C` [Cpd.5-47, 3-chloro-7-methyl-6-(2-(4-methylpyrimidin-5-yl)-5-(trifluoromethyl)phenoxy)-[1,2,4]triazolo[4,3-b]pyridazine] the value was 1000 to 6000 nM; for `CC(=O)OCc1ccc(-c2ccccc2)c(Oc2ccc3nnc(Cl)n3n2)c1` [Cpd.4-172, 3-chloro-6-(4-methylcarbonyloxymethylbiphenyl-2-yloxy)-[1,2,4]triazolo[4,3-b]pyridazine], 100 to 1000 nM.

The experiment is the same for the next values; noted with them: M2H assay, HEK293 cells; relative to DMSO; at the tested dose; read-out: TOP activation.
In the case of `Oc1cncc(-c2ccc(C(F)(F)F)cc2Oc2ccc3nnc(Cl)n3n2)c1` [Cpd.4-96, 5-(2-(3-chloro-[1,2,4]triazolo[4,3-b]pyridazin-6-yloxy)-4-(trifluoromethyl)phenyl)pyridin-3-ol], the Emax is over 130%. Still for that read-out and setting: for `Cc1noc(C)c1-c1ccccc1Oc1ccc2nnc(Cl)n2n1` [Cpd.4-109, 3-chloro-6-(2-(3,5-dimethylisoxazol-4-yl)phenoxy)-[1,2,4]triazolo[4,3-b]pyridazine] the value was over 130%.
